We go through five compounds from patent US8778621B2, “Phosphodiesterase 4D7 as marker for malignant, hormone-sensitive prostate cancer” (Koninklijke Philips N.V., priority 2009, dated 2014).

Data set [1] concerns the target cAMP phosphodiesterase (PDE4). Conditions: cited from earlier work.
The subject of data set [2] is human lung PDE4. Conditions: cited from earlier work.
Data set [3] deals with lung PDE1. The settings on record: cited from earlier work.
For data set [4], the target named is T1, lung PDE2.
T1 construct: from tissue; host or cells: lung
T1 sequence (O00408 whole entry): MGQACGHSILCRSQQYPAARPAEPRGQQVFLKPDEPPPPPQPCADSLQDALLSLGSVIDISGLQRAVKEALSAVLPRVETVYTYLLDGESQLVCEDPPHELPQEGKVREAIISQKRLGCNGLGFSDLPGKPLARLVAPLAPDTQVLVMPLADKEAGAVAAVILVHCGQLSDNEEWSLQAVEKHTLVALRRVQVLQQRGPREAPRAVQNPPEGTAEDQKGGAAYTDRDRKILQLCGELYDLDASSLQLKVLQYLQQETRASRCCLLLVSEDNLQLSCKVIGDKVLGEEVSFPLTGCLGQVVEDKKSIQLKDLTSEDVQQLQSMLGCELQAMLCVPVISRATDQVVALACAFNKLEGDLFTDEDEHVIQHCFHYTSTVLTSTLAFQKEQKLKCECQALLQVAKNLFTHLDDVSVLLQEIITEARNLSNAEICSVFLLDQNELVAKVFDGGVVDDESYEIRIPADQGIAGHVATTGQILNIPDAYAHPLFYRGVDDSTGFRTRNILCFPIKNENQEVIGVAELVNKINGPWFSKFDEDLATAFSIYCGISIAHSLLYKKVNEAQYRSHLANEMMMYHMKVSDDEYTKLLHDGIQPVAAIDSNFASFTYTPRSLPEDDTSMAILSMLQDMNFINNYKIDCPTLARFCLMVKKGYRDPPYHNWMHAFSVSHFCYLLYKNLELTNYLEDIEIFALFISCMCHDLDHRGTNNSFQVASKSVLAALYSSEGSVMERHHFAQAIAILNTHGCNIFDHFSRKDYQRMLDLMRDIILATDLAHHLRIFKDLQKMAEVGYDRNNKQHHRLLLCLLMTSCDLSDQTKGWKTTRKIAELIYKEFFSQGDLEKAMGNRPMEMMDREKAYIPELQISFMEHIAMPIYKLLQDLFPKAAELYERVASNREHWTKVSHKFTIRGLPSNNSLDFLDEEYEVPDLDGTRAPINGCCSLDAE
The settings on record: cited from earlier work.

In data set [5] the test system is heart PDE3. Conditions: cited from earlier work.
Data set [6] concerns the target T2, platelet PDE-V (Homo sapiens, UniProt O76074).
T2 construct: from tissue; host or cells: platelets
The settings on record: cited from earlier work.

Data set [7] relates to isolated human peripheral blood monocytes, eosinophils and T cells. Conditions: cited from earlier work.
The conditions of data set [8]: in vivo; cited from earlier work.
Data set [9] addresses [3H]-rolipram binding to rat brain. The settings on record: read-out: IC50 for inhibition of [3H]-rolipram binding to rat brain; cited from earlier work.
In data set [10] the target is PDEIB (Homo sapiens, UniProt Q01064). Conditions: cited from earlier work.
Sequence of PDEIB (Q01064 whole entry): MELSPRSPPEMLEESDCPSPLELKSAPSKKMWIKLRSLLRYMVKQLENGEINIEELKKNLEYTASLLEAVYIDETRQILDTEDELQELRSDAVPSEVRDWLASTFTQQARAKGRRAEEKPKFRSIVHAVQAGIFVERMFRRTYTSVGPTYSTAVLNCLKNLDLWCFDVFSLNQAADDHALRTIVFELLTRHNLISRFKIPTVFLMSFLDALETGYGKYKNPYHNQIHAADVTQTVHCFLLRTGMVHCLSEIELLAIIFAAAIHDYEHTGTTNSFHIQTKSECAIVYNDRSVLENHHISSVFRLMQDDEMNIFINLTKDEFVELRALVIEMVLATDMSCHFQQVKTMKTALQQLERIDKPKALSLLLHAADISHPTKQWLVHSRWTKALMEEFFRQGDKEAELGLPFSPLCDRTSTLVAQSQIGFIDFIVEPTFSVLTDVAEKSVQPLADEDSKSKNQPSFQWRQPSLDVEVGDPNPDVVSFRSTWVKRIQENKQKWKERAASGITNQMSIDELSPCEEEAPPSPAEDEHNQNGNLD
Data set [11] addresses PDEIIA (Homo sapiens, UniProt O00408). Conditions: cited from earlier work.
Data set [12] deals with PDEIIIB (Homo sapiens, UniProt Q13370). Conditions: cited from earlier work.
Sequence of PDEIIIB (Q13370 whole entry): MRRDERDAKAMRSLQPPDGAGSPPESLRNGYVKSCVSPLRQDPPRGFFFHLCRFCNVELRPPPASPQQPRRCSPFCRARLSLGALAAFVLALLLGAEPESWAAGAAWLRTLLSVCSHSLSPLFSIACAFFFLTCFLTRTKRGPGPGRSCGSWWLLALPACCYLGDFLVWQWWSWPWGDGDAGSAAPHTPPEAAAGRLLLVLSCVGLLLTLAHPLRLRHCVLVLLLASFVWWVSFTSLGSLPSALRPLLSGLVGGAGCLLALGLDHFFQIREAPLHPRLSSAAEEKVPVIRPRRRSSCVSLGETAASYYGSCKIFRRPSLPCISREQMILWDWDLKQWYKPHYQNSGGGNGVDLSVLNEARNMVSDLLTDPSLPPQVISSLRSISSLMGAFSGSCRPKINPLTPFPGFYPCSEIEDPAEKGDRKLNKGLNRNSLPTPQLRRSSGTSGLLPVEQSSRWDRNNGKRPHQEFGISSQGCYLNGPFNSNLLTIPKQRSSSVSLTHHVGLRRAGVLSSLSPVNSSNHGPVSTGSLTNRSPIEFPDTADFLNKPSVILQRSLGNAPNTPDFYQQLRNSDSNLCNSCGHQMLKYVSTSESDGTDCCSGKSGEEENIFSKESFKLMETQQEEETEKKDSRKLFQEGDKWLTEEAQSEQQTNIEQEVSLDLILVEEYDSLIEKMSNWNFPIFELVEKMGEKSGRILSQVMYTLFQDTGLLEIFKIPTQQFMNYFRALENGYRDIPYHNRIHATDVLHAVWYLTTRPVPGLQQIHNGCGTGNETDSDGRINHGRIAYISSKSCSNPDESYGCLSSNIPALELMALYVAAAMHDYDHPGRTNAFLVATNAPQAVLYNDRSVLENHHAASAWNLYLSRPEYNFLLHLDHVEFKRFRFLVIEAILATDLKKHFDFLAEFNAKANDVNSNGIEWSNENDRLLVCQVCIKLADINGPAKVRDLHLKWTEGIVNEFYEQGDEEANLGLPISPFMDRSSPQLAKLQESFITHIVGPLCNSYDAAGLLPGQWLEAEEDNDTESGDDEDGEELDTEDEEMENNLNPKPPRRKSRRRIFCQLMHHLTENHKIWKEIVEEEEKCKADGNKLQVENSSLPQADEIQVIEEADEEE
In data set [13] the target is PDEVA (Homo sapiens, UniProt O76074). The settings on record: cited from earlier work.
Data set [14] has as its target PDEVIIB (Homo sapiens, UniProt Q9NP56). The settings on record: cited from earlier work.
Data set [15] has as its target PDEVIIIA (Homo sapiens, UniProt O60658). The settings on record: cited from earlier work.
For data set [16], the target named is PDEIXA (Homo sapiens, UniProt O76083). Conditions: cited from earlier work.
Sequence of PDEIXA (O76083 whole entry): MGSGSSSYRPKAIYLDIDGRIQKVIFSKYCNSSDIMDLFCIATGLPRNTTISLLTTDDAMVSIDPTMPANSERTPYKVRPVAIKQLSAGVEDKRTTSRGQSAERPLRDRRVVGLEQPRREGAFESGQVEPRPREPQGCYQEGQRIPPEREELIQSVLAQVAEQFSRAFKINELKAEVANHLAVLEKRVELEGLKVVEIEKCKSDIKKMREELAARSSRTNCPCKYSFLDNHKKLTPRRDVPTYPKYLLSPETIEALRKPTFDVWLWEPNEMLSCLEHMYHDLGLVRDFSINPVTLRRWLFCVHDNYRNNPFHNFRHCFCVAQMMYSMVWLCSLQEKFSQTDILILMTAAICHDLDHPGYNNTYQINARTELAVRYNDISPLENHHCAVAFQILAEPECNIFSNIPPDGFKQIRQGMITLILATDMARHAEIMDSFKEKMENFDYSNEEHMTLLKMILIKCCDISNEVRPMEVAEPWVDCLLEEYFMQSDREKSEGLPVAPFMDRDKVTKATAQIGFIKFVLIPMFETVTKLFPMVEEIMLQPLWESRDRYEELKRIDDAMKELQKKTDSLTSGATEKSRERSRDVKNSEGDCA
Data set [17] concerns the target PDEXIA (Homo sapiens, UniProt Q9HCR9). The settings on record: cited from earlier work.
The target of data set [18] is PDEXA (Homo sapiens, UniProt Q9Y233). The settings on record: cited from earlier work.
Sequence of PDEXA (Q9Y233 whole entry): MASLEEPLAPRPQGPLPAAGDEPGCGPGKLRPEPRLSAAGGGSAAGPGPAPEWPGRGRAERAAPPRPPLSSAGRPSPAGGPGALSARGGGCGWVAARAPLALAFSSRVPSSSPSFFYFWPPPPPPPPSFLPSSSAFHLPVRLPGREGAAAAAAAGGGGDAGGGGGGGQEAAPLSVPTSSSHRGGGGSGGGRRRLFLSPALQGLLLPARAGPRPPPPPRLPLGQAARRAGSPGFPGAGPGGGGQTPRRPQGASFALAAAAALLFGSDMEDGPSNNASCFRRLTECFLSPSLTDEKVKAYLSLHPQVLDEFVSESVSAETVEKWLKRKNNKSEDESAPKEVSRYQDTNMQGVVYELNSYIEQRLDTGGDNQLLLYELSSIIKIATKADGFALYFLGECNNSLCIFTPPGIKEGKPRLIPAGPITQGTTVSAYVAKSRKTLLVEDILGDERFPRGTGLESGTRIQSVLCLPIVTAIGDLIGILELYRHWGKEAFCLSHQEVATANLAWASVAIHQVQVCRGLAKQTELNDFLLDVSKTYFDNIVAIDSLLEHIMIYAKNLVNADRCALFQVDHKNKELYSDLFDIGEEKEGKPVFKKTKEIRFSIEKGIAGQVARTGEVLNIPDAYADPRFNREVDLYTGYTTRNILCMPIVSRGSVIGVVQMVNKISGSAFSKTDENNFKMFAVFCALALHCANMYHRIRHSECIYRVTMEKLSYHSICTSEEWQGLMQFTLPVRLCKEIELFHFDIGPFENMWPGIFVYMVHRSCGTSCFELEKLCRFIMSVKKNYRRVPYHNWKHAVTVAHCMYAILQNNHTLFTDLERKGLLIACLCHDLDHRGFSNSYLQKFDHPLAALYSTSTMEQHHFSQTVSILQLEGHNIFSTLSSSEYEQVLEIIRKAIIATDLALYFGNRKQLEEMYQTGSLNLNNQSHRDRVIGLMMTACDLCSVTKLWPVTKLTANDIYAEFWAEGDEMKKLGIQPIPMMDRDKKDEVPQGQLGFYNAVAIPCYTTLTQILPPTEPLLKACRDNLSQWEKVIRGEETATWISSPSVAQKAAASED
In data set [19] the test system is LNCaP prostate cancer cells. Briefly: Xcelligence assay, real time electrical impedance measurement of cell growth. The data set is classed as cell-based. The settings on record: Homo sapiens. As for the experimental part:
The growth data is expressed as a percentage of “untreated” slope value obtained during real time electrical impedance measurements. Measurements were conducted 12 hours after the initial plating down phase of the assay, i.e. 12 hours-60 hours—so as to examine proliferative potential and not morphological change. The cells were assayed without the presence of androgens.
For the Xcelligence assay LNCaP cells were grown at 37° C., 5% CO2, from a seeding value of 5000 cells. The final plating volume was 200 μl. E-Plate 96 well plates were obtained from Roche (Cat No 05232368001). The growth data were obtained during real time electrical impedance measurements. Measurements were conducted 12 hours after the initial plating down phase of the assay, i.e. 12 hours-60 hours—so as to examine proliferative potential and not morphological change. The cells were assayed without the presence of androgens. The significance of differential growth rates were calculated using T-Test of Triplicate Values only. […] The level of average inhibition of cell proliferation is around 50%, which would lead to an IC50 of the compound of ˜10 μM. Compared to an in vitro IC50 for 50% inhibition of PDE4 in vitro of ˜2 μm, an in vivo IC50 of 10 μM let us conclude that the proliferation inhibition effect is largely due to its PDE4 activity.

Data set [20] deals with LNCaP prostate cancer cells. Briefly: MTT growth assay, A590 Abs end-point. In kind it is cell-based. Conditions: Homo sapiens. How it is done:
The growth data is expressed as a percentage of as a percentage of the “untreated” A590 Abs reading after 48 hours. The cells were assayed without the presence of androgens.
For the MTT growth assay LNCaP cells were grown at 37° C., 5% CO2, from a seeding value of 5000 cells. The final plating volume was 200 μl. The proliferation assay was obtained from Promega (Cat no G3582). The growth data were obtained during A590 Abs measurements. Measurements were conducted 48 hours after the initial plating. The cells were assayed without the presence of androgens. The significance of final A590 readings was calculated using T-Test of Triplicate Values only. […] The level of average inhibition of cell proliferation is around 50%, which would lead to an IC50 of the compound of ˜10 μM. […]
(In general: Tetrazolium assays rely on reduction of a dye to a coloured formazan, in cell work by metabolically active cells.)

For data set [21] the following is noted: in vivo; cited from earlier work. The source holds these as a separate data set.
[22] abbreviates: PDE4 inhibitors, target not given, read-out: IC 50 (Table of Inhibitors).

The structures appear in SMILES notation. Like-named read-outs stand apart in the source and are kept apart here.

Sequence of PDEIIA (O00408 whole entry): as the sequence (O00408 whole entry) above
Sequence of PDEVIIB (Q9NP56 whole entry): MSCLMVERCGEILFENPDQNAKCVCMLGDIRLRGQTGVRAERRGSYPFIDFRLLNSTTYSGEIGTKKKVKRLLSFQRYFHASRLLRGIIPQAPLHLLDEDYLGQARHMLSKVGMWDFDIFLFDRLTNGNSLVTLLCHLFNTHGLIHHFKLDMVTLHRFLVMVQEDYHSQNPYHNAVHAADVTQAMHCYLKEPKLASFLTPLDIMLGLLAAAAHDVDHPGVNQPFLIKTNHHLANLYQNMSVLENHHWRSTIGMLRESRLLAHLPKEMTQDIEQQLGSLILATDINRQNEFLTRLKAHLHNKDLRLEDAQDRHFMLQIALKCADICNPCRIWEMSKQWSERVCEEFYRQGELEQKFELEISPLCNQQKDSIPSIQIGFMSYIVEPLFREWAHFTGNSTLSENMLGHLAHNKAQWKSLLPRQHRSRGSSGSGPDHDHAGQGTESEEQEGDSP

As to `COc1ccc(C2CNC(=O)NC2)cc1O[C@H]1C[C@@H]2CC[C@H]1C2` [CP80633], the IC50 in data set [1] (setting [22]) was 1.9 µM; in [2], 1.9 µM; in data set [3] it was more than 100 µM; in data set [4], more than 100 µM; in data set [5], more than 100 µM; in data set [6], more than 100 µM. The PDE4 isozyme selectivity entry in data set [2] is reported as “no significant PDE4 isozyme selectivity”. In addition, in [7], the “hydrolysis of cAMP in blood cells” value is recorded as “inhibits hydrolysis of cAMP”. In [8], the “anti-inflammatory and bronchodilatory effects” value is “anti-inflammatory and bronchodilatory effects in vivo”.

Turning to `CCCn1c(=O)c(C)cn2nc(N)nc12` [ICI63197], the IC50 in data set [1] (setting [22]) and in [9] was 0.035 µM in each case.

As for `CCOC(=O)c1c(C)nn(-c2cccc([N+](=O)[O-])c2)c1C` [Phosphodiesterase 4 Inhibitor], the IC50 in data set [1] (setting [22]) is 0.033 µM; in data set [10], more than 30 µM; in data set [11] it was more than 30 µM; in data set [12], more than 30 µM; in data set [13], more than 30 µM; in data set [14] it was more than 30 µM. For the same compound, the IC50 is more than 30 µM in data set [15], more than 30 µM in data set [16], more than 30 µM in data set [17] and 6.9 µM in data set [18].

In the case of `COc1ccc(C2CNC(=O)C2)cc1OC1CCCC1` (stereo not drawn) [Rolipram], the inhibition at 10 µM is approximately 50% in data set [19] (10 uM, 12-60 hours, without androgens, p<0.01, read-out: level of average inhibition of cell proliferation) and approximately 50% in data set [20] (10 μM, 48 hours, without androgens, p<0.01, read-out: level of average inhibition of cell proliferation). Further, the IC50 was approximately 10 µM in data set [19] (real-time growth, concluded from 50% inhibition at 10 uM, read-out: IC50 of cell proliferation inhibition); approximately 10 µM in data set [20] (end-point growth, concluded from 50% inhibition at 10 μM, read-out: IC50 of cell proliferation inhibition); 1 µM in data set [1] (setting [22]); approximately 2 µM in data set [1] (in vitro, read-out: in vitro IC50 for 50% inhibition of PDE4); 2 µM in [1] (read-out: IC50, PDE4).

Take `CCc1ccc2c(-c3cccc(Cl)c3)nc(=O)n(CC)c2n1` [YM976]: in data set [1] (read-out: IC50, PDE4), the IC50 was 0.0022 µM. In addition, in data set [21], the emetogenic activity entry is “low emetogenic activity”.
